Test results taken from paper PMC11758394, “VCP downstream metabolite glycerol-3-phosphate (G3P) inhibits CD8^+T cells function in the HCC microenvironment” (Signal Transduction and Targeted Therapy, 2025).

Experiments:
LCK = target: T1, LCK (Homo sapiens, UniProt P06239); test: SPR (Biacore 8K, protein on CM5 chip); also ITC; assay type: binding; details: PBS; value not in text
T1 construct: purified full-length LCK

region LCK(240-509AAs) = target: T2, region LCK(240-509AAs) (Homo sapiens, UniProt P06239); test: SPR (Biacore 8K, protein on CM5 chip); also ITC; details: PBS; value not in text; binding of this fragment inferred because it contains 330-509
T2 construct: purified fragment 240-509 (kinase domain)
T2 sequence (P06239 240-509): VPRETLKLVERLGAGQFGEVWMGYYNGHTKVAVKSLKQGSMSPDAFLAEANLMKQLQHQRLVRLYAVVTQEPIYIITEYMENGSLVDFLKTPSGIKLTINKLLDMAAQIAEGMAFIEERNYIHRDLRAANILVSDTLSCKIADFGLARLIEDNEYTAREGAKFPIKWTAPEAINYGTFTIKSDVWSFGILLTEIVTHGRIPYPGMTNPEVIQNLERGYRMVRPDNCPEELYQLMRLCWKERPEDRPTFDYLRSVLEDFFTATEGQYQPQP

T1 sequence (P06239 whole entry): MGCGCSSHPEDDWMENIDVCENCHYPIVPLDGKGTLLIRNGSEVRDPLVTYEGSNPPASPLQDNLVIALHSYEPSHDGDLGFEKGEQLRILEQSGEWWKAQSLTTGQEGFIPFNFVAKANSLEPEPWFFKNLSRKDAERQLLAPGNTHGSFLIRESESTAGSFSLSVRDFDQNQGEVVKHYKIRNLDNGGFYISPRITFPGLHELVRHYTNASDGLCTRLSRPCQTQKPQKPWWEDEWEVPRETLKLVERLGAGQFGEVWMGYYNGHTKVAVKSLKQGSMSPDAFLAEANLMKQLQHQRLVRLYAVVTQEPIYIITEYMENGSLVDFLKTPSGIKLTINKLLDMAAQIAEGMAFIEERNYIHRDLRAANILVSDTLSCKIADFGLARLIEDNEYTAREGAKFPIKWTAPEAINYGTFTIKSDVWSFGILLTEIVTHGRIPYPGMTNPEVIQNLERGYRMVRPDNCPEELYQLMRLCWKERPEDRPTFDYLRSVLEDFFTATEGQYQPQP

O=P(O)(O)OC[C@H](O)CO [G3P]
Kd (LCK): we demonstrated the interaction of LCK and G3P using surface plasmon resonance (BIAcore) experiment | Kd (region LCK(240-509AAs)): BIAcore measurement of the interaction between G3P and the purified region
